Numbers after ± are expanded uncertainties.
Assay: wn = mass fraction of the nth substance listed
Conditions: 101.3 kPa, Liquid, Vibrating tube method

SMILES	mass density (283.15 K, w1 = 0.0695)	mass density (303.15 K, w1 = 0.1382)	mass density (313.15 K, w1 = 0.1853)	mass density (283.15 K, w1 = 0.0569)	mass density (303.15 K, w1 = 0.1084)	mass density (313.15 K, w1 = 0.1419)
O=C(O)CCCCC(=O)O [1,6-hexanedioic acid] + CCO	837.4 ± 0.5 kg/m3	852.3 ± 0.5 kg/m3	870.4 ± 0.5 kg/m3			
O=C(O)CCC(=O)O [butanedioic acid] + CCO				836.8 ± 0.5 kg/m3	843.8 ± 0.5 kg/m3	868.6 ± 0.5 kg/m3
